# How the values were obtained:
# [1] = molecular target: T1, Peptide deformylase, mitochondrial (Homo sapiens) (UniProt Q9HBH1); assay: Inhibition of human peptide deformylase at 100 uM after 1 hr by fluorescence polarization based competition assay
# T1 sequence (whole entry): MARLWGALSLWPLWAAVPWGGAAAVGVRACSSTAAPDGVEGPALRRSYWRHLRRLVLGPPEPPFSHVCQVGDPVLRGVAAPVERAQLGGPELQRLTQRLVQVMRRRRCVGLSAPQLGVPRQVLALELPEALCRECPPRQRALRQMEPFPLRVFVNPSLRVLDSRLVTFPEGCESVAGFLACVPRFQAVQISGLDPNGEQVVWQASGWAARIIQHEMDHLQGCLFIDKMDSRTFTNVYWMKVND
# [2] = molecular target: T2, Peptide deformylase (Escherichia coli) (UniProt Q9JN24); assay: Inhibition of Escherichia coli peptide deformylase at 100 uM after 1 hr by fluorescence polarization based competition assay
# T2 sequence (whole entry): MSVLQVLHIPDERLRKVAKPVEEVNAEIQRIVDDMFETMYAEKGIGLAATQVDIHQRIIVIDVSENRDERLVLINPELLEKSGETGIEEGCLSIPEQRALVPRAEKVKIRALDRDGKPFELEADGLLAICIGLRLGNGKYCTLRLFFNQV
# [3] = molecular target: T3, Aminopeptidase N (Sus scrofa) (UniProt P15145); assay: Inhibition of porcine kidney microsomal aminopeptidase N at 100 uM after 1 hr by fluorescence polarization based competition assay
# T3 sequence (whole entry): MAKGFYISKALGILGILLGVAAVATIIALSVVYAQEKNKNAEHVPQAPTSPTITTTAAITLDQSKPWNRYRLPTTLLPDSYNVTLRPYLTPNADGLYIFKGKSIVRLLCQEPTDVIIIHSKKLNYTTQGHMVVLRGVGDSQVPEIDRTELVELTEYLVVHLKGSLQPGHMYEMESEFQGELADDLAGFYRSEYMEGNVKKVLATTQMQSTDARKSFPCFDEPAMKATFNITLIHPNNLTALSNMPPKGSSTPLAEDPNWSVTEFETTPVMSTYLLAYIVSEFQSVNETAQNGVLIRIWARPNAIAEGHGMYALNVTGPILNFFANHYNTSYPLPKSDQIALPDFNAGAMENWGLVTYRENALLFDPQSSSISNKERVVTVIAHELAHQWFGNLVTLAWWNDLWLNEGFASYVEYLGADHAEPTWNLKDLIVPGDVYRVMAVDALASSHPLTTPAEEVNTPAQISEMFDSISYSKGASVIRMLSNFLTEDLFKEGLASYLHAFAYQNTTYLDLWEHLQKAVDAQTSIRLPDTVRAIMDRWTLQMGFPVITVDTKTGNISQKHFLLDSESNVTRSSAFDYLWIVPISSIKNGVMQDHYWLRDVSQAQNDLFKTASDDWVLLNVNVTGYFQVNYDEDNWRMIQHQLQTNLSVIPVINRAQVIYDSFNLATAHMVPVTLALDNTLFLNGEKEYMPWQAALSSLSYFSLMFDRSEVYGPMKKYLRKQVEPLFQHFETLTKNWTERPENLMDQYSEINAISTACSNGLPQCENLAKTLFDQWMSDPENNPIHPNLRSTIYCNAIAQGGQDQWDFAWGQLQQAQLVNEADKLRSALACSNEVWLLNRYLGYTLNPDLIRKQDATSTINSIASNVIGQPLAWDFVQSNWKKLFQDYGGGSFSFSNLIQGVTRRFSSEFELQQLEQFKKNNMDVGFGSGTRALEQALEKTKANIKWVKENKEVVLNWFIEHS
# [4] = molecular target: T4, Interstitial collagenase (Homo sapiens) (UniProt P03956); assay: Inhibition of human recombinant MMP1 at 100 uM after 1 hr by fluorescence polarization based competition assay
# T4 sequence (whole entry): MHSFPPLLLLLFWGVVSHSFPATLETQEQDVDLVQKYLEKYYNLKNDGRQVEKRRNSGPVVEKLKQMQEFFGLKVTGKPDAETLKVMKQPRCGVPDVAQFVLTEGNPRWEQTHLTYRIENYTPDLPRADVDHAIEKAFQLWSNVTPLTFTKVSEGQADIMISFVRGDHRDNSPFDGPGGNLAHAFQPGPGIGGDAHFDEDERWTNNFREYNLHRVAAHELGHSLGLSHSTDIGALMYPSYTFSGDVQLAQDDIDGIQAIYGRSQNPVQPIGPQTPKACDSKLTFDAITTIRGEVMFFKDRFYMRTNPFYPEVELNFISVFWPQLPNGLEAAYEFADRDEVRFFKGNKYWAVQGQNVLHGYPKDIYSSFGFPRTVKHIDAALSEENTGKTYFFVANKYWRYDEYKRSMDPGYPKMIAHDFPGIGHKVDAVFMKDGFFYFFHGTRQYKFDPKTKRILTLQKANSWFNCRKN
# HL-60 [5] = assay: Cytotoxicity against human HL60 cells; type: functional, cell-based
# HL-60 [6] = assay: Cytotoxicity against human vincristine-resistant HL60 cells; type: functional, cell-based
# Jurkat = assay: Cytotoxicity against human Jurkat cells; type: functional, cell-based
# MOLT-3 = assay: Cytotoxicity against human MOLT3 cells; type: functional, cell-based
# [7] = Cytotoxicity against human ALL3 cells; type: functional, cell-based
# [8] = Cytotoxicity against human CWR22 cells; type: functional, cell-based
# HEK293 = assay: Cytotoxicity against human HEK293 cells; type: cell-based
# Y79 = assay: Cytotoxicity against human Y79 cells; type: functional, cell-based
# [9] = Cytotoxicity against human Meso47 cells; type: functional, cell-based
# Peptide deformylase = molecular target: T5, Peptide deformylase (Escherichia coli, UniProt Q9JN24); assay: Inhibition of Escherichia coli peptide deformylase after 1 hr by fluorescence polarization based competition assay
# T5 sequence (Q9JN24 whole entry): T2 sequence (whole entry)
inhibition [1] [%],inhibition [2] [%],inhibition [3] [%],inhibition [4] [%],Compound,IC50 (HL-60 [5]) [µM],IC50 (HL-60 [6]) [µM],IC50 (Jurkat) [µM],IC50 (MOLT-3) [µM],IC50 [7] [µM],IC50 [8] [µM],IC50 (HEK293) [µM],IC50 (Y79) [µM],IC50 [9] [µM],IC50 (Peptide deformylase) [µM]
0,0,0,0,COc1ccc(C(=O)c2coc3c(Cl)c(Cl)c(O)cc23)cc1OC,100,100,100,100,100,100,100,100,100,
0,0,0,10,COc1ccc(C(=O)c2coc3cc(Br)c(O)cc23)cc1,100,100,100,72,100,47,72,100,100,
24,1,6,0,O=C(c1ccccc1)c1coc2c(Cl)c(Cl)c(O)cc12,100,100,100,100,100,100,100,100,100,
0,0,0,0,COc1ccc(C(=O)c2coc3c(Br)cc(O)c(Br)c23)cc1,9,40,8,10,68,57,10,64,100,
5,7,10,0,COc1cc(C(=O)c2coc3c2C(=O)C(=O)c2ccccc2-3)cc(OC)c1OC,,,,,,,,,,
0,0,4,0,COc1ccc(C(=O)c2coc3ccc(O)cc23)cc1,100,100,33,100,100,100,100,100,100,
26,3,0,0,COc1ccc(C(=O)c2coc3cc(Cl)c(O)c(Cl)c23)cc1,19,100,24,32,100,100,32,100,100,
11,7,10,0,O=C(c1ccccc1)c1coc2ccc(O)cc12,100,100,100,100,100,100,100,100,100,
0,0,0,0,COc1ccc(C(=O)c2coc3ccc(O)c(Br)c23)cc1,100,100,100,100,100,100,100,100,100,
11,9,0,0,COc1ccc(C(=O)c2coc3c(Br)cc(O)cc23)cc1,100,100,100,100,100,100,100,100,100,
0,0,0,0,COc1ccc(C(=O)c2coc3c2C(=O)C(=O)c2ccccc2-3)cc1OC,,,,,,,,,,
9,0,0,0,COc1ccc(C(=O)c2coc3c(Cl)cc(O)c(Cl)c23)cc1,100,100,100,100,100,100,100,100,100,
0,3,0,2,COc1ccc(C(=O)c2coc3c2C(=O)C(=O)c2ccccc2-3)cc1,,,,,,,,,,
0,3,0,2,COc1ccc(C(=O)c2coc3c(Br)c(Br)c(O)cc23)cc1,100,100,100,100,100,100,100,100,100,
13,0,0,14,COc1ccc(C(=O)c2coc3c(Cl)c(Cl)c(O)cc23)cc1,100,100,100,100,100,100,100,100,100,
0,0,0,0,COc1ccc(C(=O)c2coc3c(Br)c(Br)c(O)cc23)cc1OC,57,100,37,52,100,100,52,100,100,
18,2,2,0,COc1cc(C(=O)c2coc3c(Cl)c(Cl)c(O)cc23)cc(OC)c1OC,100,100,100,100,100,100,100,100,100,
5,7,10,0,COc1cc(C(=O)c2coc3c(Br)c(Br)c(O)cc23)cc(OC)c1OC,79,100,62,100,60,100,100,100,100,

Compound,inhibition [1] [%],inhibition [2] [%],inhibition [3] [%],inhibition [4] [%],IC50 (HL-60 [5]) [µM],IC50 (HL-60 [6]) [µM],IC50 (Jurkat) [µM],IC50 (MOLT-3) [µM],IC50 [7] [µM],IC50 [8] [µM],IC50 (HEK293) [µM],IC50 (Y79) [µM],IC50 [9] [µM],IC50 (Peptide deformylase) [µM]
COc1ccc(C(=O)c2coc3c2C(=O)C(=O)C(Cl)=C3)cc1,100,11,54,11,32,,57,47,34,,100,,,> 100

# Source: ChEMBL document CHEMBL1806384, “Identification of benzofuran-4,5-diones as novel and selective non-hydroxamic acid, non-peptidomimetic based inhibitors of human peptide deformylase” (Bioorg Med Chem Lett, 2011)
